Results on five compounds are retold here after patent publication US20160338928A1, “SKIN ENGAGING MEMBER COMPRISING A CYCLOHEXANECARBOXAMIDE DERIVATIVE” (The Gillette Company, priority 2015, published 2016).

For assay [1] the following is noted: concentration where the cooling effect could be clearly recognized; reported by Emberger and Hopp 1987; cited from earlier work.
The target of the next assay is T1, human TRPM8 (Homo sapiens, UniProt Q7Z2W7).
T1 construct: expressed in transfected cells
T1 sequence (Q7Z2W7 whole entry): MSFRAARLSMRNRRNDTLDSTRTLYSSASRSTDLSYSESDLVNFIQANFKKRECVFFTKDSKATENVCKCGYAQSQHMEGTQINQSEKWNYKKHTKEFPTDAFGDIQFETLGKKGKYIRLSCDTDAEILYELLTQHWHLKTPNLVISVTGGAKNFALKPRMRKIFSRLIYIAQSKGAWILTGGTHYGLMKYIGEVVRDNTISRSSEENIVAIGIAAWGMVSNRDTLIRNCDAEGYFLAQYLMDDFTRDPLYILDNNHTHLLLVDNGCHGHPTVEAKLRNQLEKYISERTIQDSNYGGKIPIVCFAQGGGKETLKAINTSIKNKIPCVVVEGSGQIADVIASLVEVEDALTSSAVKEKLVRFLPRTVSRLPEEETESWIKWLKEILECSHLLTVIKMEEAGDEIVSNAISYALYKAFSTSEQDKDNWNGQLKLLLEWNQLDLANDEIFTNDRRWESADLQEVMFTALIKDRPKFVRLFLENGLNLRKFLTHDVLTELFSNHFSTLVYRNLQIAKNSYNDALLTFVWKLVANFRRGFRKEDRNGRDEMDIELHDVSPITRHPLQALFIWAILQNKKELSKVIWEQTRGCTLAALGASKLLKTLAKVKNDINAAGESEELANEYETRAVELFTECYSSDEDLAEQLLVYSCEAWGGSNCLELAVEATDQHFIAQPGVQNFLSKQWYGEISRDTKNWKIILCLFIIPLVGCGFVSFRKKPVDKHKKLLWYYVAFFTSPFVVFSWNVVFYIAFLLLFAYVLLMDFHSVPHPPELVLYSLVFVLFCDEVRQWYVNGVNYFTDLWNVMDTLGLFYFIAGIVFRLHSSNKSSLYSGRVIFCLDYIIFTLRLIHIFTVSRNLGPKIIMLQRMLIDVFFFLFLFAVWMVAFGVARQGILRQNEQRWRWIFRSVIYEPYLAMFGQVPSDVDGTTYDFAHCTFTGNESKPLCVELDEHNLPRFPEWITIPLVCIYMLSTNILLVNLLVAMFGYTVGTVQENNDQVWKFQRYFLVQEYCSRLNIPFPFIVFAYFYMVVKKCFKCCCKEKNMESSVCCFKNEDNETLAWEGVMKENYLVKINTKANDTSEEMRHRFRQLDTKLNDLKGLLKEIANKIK
Briefly: TRPM8 activation, FLIPR calcium flux in HEK cells stably transfected with human TRPM8. Type of assay: cell-based. Particulars: amino acid derived side chain (alanine) in R (28) and S (776) configuration. The method, then:
[…] (human embryonic kidney) cells stably transfected with human TRPM8 are grown in 15 ml growth medium (high glucose DMEM (Dulbecco's Modification of Eagle's Medium) supplemented with 10% FBS (fetal bovine serum), 100 ug/ml penicillin/streptomycin, 5 μg/ml blasticindin, and 100 μg/ml zeocin) in a 75 CM^2 flask for 3 days at 37° C. in a mammalian cell culture incubator set at 5% CO2. Cells are detached with addition of 2 ml of trypsin-EDTA buffer (GIBCO® 25200, Invitrogen) for about 2-3 min. Trypsin is inactivated by addition of 8 ml growth medium. Cells are transferred to a 50 ml tube and centrifuged at 850 rpm for 3 minutes to remove medium. After centrifugation, a pellet of cells is formed in the bottom of the tube separating them from the supernatant solution. […] (Fluo-4 AM is a fluorescent dye used for quantifying cellular Ca^2+ concentrations in the 100 nM to 1 microM range.) At the end of 30 minutes, 45 ml of assay buffer (1×HBSS (Hank's Balanced Salt Solution), 20 mM HEPES (4-(2-Hydroxyethyl)-1-piperazineethanesulfonic acid)) is added to wash cells and the resulting mixture is then centrifuged at 850 rpm for 3 minutes to remove excess buffer and Fluo-4 AM calcium indicator. […]

SMILES strings stand for the structures.

Take `CC(C)[C@@H]1CC[C@@H](C)C[C@@H]1O` [d-neomenthol]: in assay [1], the cooling threshold entry is listed as “about 25,000 ppb”.
As to `CC(C)[C@@H]1CC[C@@H](C)C[C@H]1C(=O)NCC(NC(=O)[C@@H](C)N)c1ccccc1` (some centres unmarked) [Compound 28], the “activity towards the receptor” value at human TRPM8 was “excellent activity”.
In the case of `CC(C)[C@@H]1CC[C@@H](C)C[C@@H]1O` [Compound 1-neomenthol, 1-neomenthol], the cooling threshold result in assay [1] is “about 3,000 ppb”.
Turning to `CC(C)[C@@H]1CC[C@@H](C)C[C@H]1O` [L-menthol], in assay [1], the cooling threshold entry was “about 800 ppb”.
As for `COc1ccc(NC(=O)[C@@H]2C[C@H](C)CC[C@H]2C(C)C)c(NC(=O)[C@H](C)N)c1` [Compound 776], on human TRPM8, the “activity towards the receptor” value is recorded as “excellent activity”.
